Data on 3 compounds can be found in patent US10501518B2 (priority 2013, dated 2019).

“Also recorded” adds a separate entry of the source. Read-outs that look alike come from different tables or passages of the source.

For data set [1], the target named is T1, R^0 form of rat PTHR-1 (Rattus norvegicus, UniProt P25961).
T1 construct: expressed in transfected cells; host or cells: COS-7
T1 sequence (P25961 27-591): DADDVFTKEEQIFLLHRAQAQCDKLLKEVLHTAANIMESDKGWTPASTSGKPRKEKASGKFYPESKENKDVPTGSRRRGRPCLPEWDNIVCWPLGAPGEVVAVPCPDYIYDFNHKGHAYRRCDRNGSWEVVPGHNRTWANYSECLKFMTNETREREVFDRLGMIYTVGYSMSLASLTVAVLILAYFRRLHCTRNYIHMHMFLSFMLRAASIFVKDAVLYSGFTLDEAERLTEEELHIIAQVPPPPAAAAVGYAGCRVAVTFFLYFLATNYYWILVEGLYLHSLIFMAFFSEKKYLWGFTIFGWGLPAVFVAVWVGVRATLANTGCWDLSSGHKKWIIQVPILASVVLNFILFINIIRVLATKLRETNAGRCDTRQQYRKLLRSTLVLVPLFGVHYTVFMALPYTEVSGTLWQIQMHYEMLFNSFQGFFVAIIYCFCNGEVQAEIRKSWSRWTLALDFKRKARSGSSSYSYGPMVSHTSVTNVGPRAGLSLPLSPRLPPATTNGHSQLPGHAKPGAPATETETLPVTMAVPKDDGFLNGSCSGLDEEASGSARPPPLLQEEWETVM
The data set can be described thus: Radio-ligand competition binding to R^0 form of rat PTHR-1. As to conditions: for R^0/RG: ratio of R^0 to RG IC50, rat PTHR-1; for affinity for the R^0 state of rPTHR-1, in words: compared with PTH(1-34). From the text:
(§1) Data are means (±SEM) of n≥4 experiments, each performed in duplicate.

For data set [2], the target named is T2, RG form of human PTHR-1 (Homo sapiens, UniProt Q03431).
T2 construct: expressed in transfected cells; host or cells: COS-7
T2 sequence (Q03431 27-593): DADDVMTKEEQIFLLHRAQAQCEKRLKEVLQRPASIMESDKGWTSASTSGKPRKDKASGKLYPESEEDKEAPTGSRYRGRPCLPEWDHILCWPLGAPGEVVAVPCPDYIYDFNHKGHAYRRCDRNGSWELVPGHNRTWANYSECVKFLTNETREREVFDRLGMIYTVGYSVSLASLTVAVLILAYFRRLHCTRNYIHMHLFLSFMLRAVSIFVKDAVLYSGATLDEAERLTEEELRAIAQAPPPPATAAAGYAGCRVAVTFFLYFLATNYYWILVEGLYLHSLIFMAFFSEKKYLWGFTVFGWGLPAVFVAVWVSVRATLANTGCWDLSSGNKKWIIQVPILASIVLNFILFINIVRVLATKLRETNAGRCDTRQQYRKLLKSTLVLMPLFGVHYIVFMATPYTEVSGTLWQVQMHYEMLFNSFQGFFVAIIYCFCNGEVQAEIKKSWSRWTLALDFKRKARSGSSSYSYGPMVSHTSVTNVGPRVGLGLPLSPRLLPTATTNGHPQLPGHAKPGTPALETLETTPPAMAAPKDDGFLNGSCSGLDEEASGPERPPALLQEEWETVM
Kind of data set: Radio-ligand competition binding to RG form of human PTHR-1 (COS-7 membranes, 125I-M-PTH(1-15) tracer, high affinity Gαs mutant).
Source text: as §1

The target of data set [3] is T3, RG form of rat PTHR-1 (Rattus norvegicus, UniProt P25961).
T3 construct: expressed in transfected cells; host or cells: COS-7
T3 sequence (P25961 27-591): T1 sequence (P25961 27-591)
Kind of data set: Radio-ligand competition binding to RG form of rat PTHR-1.
Source text: as §1

A short description of data set [4]: In vivo pharmacokinetics: peptide content of mouse plasma by cAMP GloSensor assay. As to conditions: mice, subcutaneous injection, 20 nmol/kg. As to the method:
Compound concentrations were determined by submitting plasma to a cAMP GloSensor assay, quantification of luminescence readout, and conversion to peptide concentration via standard curve. […] See also FIGS. 12A, 12B and 12C.
FIG. 12 B is a magnification of FIG. 12A to highlight the data from early time points. FIG. 12 C is a dose-response curve used to convert the raw luminescence time course found in FIG. 12A to the peptide concentration time course found in FIG. 3B. This curve was generated from a single assay run immediately before assessing the raw luminescence time course.
Blood was withdrawn just prior to injection (t=0) or at times thereafter. Tail vein blood was collected and treated with protease inhibitors (aprotinin, leupeptin, EDTA), centrifuged to remove blood cells, mixed with cAMP response assay buffer, and administered to GP2.3 cells. The raw luminescence readouts recorded in this assay were converted to blood peptide concentrations through use of a standard curve relating luminescence response to known peptide concentrations under identical assay conditions.

In data set [5] the target is T4, R^0 form of human PTHR-1 (Homo sapiens, UniProt Q03431).
T4 construct: expressed in transfected cells; host or cells: COS-7
T4 sequence (Q03431 27-593): T2 sequence (Q03431 27-593)
Kind of data set: Radio-ligand competition binding to R^0 form of human PTHR-1 (COS-7 membranes, 125I-PTH(1-34) tracer, GTPγS). To be noted: for R^0/RG: Table 4, ratio of R^0 to RG IC50, human PTHR-1; for affinity for the R^0 state of hPTHR-1, in words: compared with PTH(1-34).
Source text: as §1

For data set [6], the target named is T5, WT rat PTHR-1 (Rattus norvegicus, UniProt P25961).
T5 construct: expressed in transfected cells
T5 sequence (P25961 27-591): T1 sequence (P25961 27-591)
The data set can be described thus: cAMP GloSensor dose-response in GR-35 cells expressing rat PTHR-1. Format: cell-based. As to conditions: for cAMP (rPTHR-1) Max / EC50: Table 2; for cAMP (rPTHR-1) Max: luminescence counts per second relative to PTH(1-34); for cAMP (rPTHR-1) Max / Max: 12-16 minutes after ligand addition; for EC50: read-out: cAMP (rPTHR-1) EC50; for Fold nM PTH(1-34) / Max: Table 7; for Fold nM PTH(1-34): EC50 relative to PTH(1-34); for Max: GR-35 cells, mean ± SEM.

Setting [7] is: Table 2, read-out: R^0 IC50, nM, Binding (rPTHR-1).
Where [8] appears, read: Table 5, rat PTHR-1, mean ± SEM, read-out: R^0 -log (IC50) (converted).
Where [9] appears, read: Table 2, read-out: RG IC50, nM, Binding (rPTHR-1).

Regarding `CC[C@H](C)[C@H](NC(=O)[C@H](CCC(=O)O)NC(=O)[C@H](CO)NC(=O)[C@@H](NC(=O)[C@@H](N)CO)C(C)C)C(=O)N[C@@H](CCC(N)=O)C(=O)N[C@@H](CC(C)C)C(=O)N[C@@H](CCSC)C(=O)N[C@@H](Cc1c[nH]cn1)C(=O)N[C@@H](CC(N)=O)C(=O)N[C@@H](CC(C)C)C(=O)NCC(=O)N[C@@H](CCCCN)C(=O)N[C@@H](Cc1c[nH]cn1)C(=O)N[C@@H](CC(C)C)C(=O)N[C@@H](CC(N)=O)CC(=O)N[C@@H](CO)C(=O)N[C@@H](CCSC)C(=O)N[C@@H](CCC(=O)O)C(=O)N[C@@H](CCCNC(=N)N)CC(=O)N[C@H](C(=O)N[C@@H](CCC(=O)O)C(=O)N[C@@H](Cc1c[nH]c2ccccc12)C(=O)N[C@H](CC(=O)N[C@@H](CCCNC(=N)N)C(=O)N[C@@H](CCCCN)C(=O)N[C@@H](CCCCN)C(=O)N[C@H](CC(=O)N[C@@H](CCC(N)=O)C(=O)N[C@@H](CC(=O)O)C(=O)N[C@H](C(=O)N[C@@H](CCC(N)=O)CC(=O)N[C@@H](CC(N)=O)C(=O)N[C@@H](Cc1ccccc1)C(N)=O)C(C)C)CC(C)C)CC(C)C)C(C)C` [B5], the IC50 (usually the concentration at which inhibition is half-maximal) in data set [1] (setting [7]) is 65 nM; in data set [1] (setting [8]) it was 66.1 nM; in data set [2] (Table 1, 125I-M-PTH(1-15) tracer, Gαs mutant, read-out: RG IC50, nM, Binding (hPTHR-1)), 0.086 nM; in data set [3] (setting [9]) it was 4.2 nM; in data set [3] (Table 5, rat PTHR-1, mean ± SEM, read-out: RG -log (IC50) (converted)) it was 4.27 nM; in data set [5] (Table 1, COS-7 membranes, 125I-PTH(1-34) tracer, GTPγS, read-out: R^0 IC50, nM, Binding (hPTHR-1)), 19 nM. In addition, the “R^0/RG” value in data set [1] (Table 5) is recorded as 15; in data set [5], 225. Further, the “affinity for the R^0 state of rPTHR-1, in words” value in data set [1] is listed as “significantly weaker affinity”. The “level / persistence in the mouse bloodstream” value (“level / persistence” below) in data set [4] is reported as “prolonged bioavailability”. Further, the “affinity for the R^0 state of hPTHR-1, in words” value in data set [5] is given as “an order of magnitude more weakly”. Besides, in data set [6], the “cAMP (rPTHR-1) Max” value is 0.78. Moreover, in data set [6], the EC50 (commonly the midpoint of the concentration-response curve) is 1.45 nM. Moreover, the “Fold nM PTH(1-34)” value in data set [6] was 3.49. For the same compound, the Max in data set [6] is reported as 51 ± 21 luminescence counts per second × 10−3.

As to `CC[C@H](C)[C@H](NC(=O)[C@H](CCC(=O)O)NC(=O)[C@H](CO)NC(=O)[C@@H](NC(=O)[C@@H](N)CO)C(C)C)C(=O)N[C@@H](CCC(N)=O)C(=O)N[C@@H](CC(C)C)C(=O)N[C@@H](CCSC)C(=O)N[C@@H](Cc1cnc[nH]1)C(=O)N[C@@H](CC(N)=O)C(=O)N[C@@H](CC(C)C)C(=O)NCC(=O)N[C@@H](CCCCN)C(=O)N[C@H](CC(=O)N[C@@H](CC(C)C)C(=O)N[C@@H](CC(N)=O)C(=O)N[C@@H](CO)C(=O)N[C@@H](CCSC)CC(=O)N[C@@H](CCC(=O)O)C(=O)N[C@@H](CCCNC(=N)N)C(=O)N[C@H](C(=O)N[C@@H](CCC(=O)O)CC(=O)N[C@@H](Cc1c[nH]c2ccccc12)C(=O)N[C@@H](CC(C)C)C(=O)N[C@@H](CCCNC(=N)N)C(=O)N[C@@H](CCCCN)CC(=O)N[C@@H](CCCCN)C(=O)N[C@@H](CC(C)C)C(=O)N[C@@H](CCC(N)=O)C(=O)N[C@@H](CC(=O)O)CC(=O)N[C@H](C(=O)N[C@@H](Cc1cnc[nH]1)C(=O)N[C@@H](CC(N)=O)C(=O)N[C@H](CC(N)=O)Cc1ccccc1)C(C)C)C(C)C)Cc1c[nH]c2ccccc12` [D6], the IC50 in data set [1] (setting [7]) is 6.1 nM; in data set [1] (setting [8]), 6.03 nM; in data set [2], 0.065 nM; in data set [3] (setting [9]) it was 0.81 nM; in data set [5], 2 nM. For the same compound, the “R^0/RG” value in data set [1] (Table 5) is 8; in data set [5], 31. In addition, the “affinity for the R^0 state of rPTHR-1, in words” value in data set [1] is given as “somewhat weaker affinity”. In addition, the “level / persistence” value in data set [4] is given as “persists even longer in the bloodstream than does B5; also recorded: persists much longer in the mouse bloodstream than does PTH(1-34)”. For the same compound, the “affinity for the R^0 state of hPTHR-1, in words” value in data set [5] is given as “comparably to PTH(1-34)”. Moreover, the “cAMP (rPTHR-1) Max” value in data set [6] came to 0.76. Also, the EC50 in data set [6] was 0.33 nM. Besides, the “Fold nM PTH(1-34)” value in data set [6] is listed as 0.79. In addition, in data set [6], the Max is 50 ± 15 luminescence counts per second × 10−3.

As to `CC[C@H](C)[C@H](NC(=O)[C@H](CCC(=O)O)NC(=O)[C@H](CO)NC(=O)[C@@H](NC(=O)[C@@H](N)CO)C(C)C)C(=O)N[C@@H](CCC(N)=O)C(=O)N[C@@H](CC(C)C)C(=O)N[C@@H](CCSC)C(=O)N[C@@H](Cc1cnc[nH]1)C(=O)N[C@@H](CC(N)=O)C(=O)N[C@@H](CC(C)C)C(=O)NCC(=O)N[C@@H](CCCCN)C(=O)N[C@@H](Cc1cnc[nH]1)C(=O)N[C@@H](CC(C)C)C(=O)N[C@@H](CC(N)=O)C(=O)N[C@@H](CO)C(=O)N[C@@H](CCSC)C(=O)N[C@@H](CCC(=O)O)C(=O)N[C@@H](CCCN=C(N)N)C(=O)N[C@H](C(=O)N[C@@H](CCC(=O)O)C(=O)N[C@@H](Cc1c[nH]c2ccccc12)C(=O)N[C@@H](CC(C)C)C(=O)N[C@@H](CCCN=C(N)N)C(=O)N[C@@H](CCCCN)C(=O)N[C@@H](CCCCN)C(=O)N[C@@H](CC(C)C)C(=O)N[C@@H](CCC(N)=O)C(=O)N[C@@H](CC(=O)O)C(=O)N[C@H](C(=O)N[C@@H](Cc1cnc[nH]1)C(=O)N[C@@H](CC(N)=O)C(=O)N[C@@H](Cc1ccccc1)C(=O)O)C(C)C)C(C)C` [PTH(1-34), reference compound], in data set [4], the “level / persistence” value is recorded as “consistently lower than the level of B5”. In addition, in data set [6], the “cAMP (rPTHR-1) Max” value stood at 1.00 and the Max is on record as 65 ± 31 luminescence counts per second × 10−3.
